Results reported in patent US20240166626A1, “Compounds and Methods for Preventing, Treating, or Ameliorating Airway Disease” (THOMAS JEFFERSON UNIVERSITY, priority 2021, published 2024).

Target: CXCR4 (Homo sapiens, UniProt P61073)
Assay: BRET analysis of β-arrestin2 interaction with CXCR4 in HEK 293 cells
Format: cell-based
Conditions: 10 μM DFPQ, FIG. 2C
Procedure: FIGS. 2A-2C: […] Cells were read every 2 min post agonist addition. […]® ADRB2 cells (DiscoveRx) were maintained with the AssayCompleteTM Cell Culture kit (DiscoveRx catalog #92-[…]). […] HEK 293 cells stably overexpressing β2AR included 250 μg/ml G418. Cells were incubated at 37° C. in a humidified incubator with 5% CO2. […] Cells were read every three minutes for 18 minutes on a PolarStar Optima plate reader (BMG) to establish peak signal. […] Plates were incubated in the dark at room temperature for one hour. Luminescence was determined at room temperature (23-25° C.) on a PolarStar Optima plate reader (BMG). […] Screening data analysis and IC50 determination. […] Relative assay bias was calculated from the ratio of normalized cAMP and arrestin recruitment responses. […] BRET was measured using a Tecan Infinite F500 microplate reader. […] Bound [35 S]GTPγS was collected by rapid filtration on GF/B filters, washed 4 times with 4 ml of cold GTPγS wash buffer and analyzed by liquid scintillation counting. […] Immunoprecipitated proteins were separated by SDS-PAGE and analyzed by western blot using a β2AR C-terminal tail or phospho-specific antibody. […] Band intensity was measured by densitometry using ImageJ. […] Absorbance was then measured on a plate reader at 405 nm. […] Lungs were monitored for appropriate inflation. […] Images were analyzed post hoc using the ImageJ software. […] Cell-free area was quantitated using ImageJ. […]

CXCR4, sequence (P61073 whole entry, species assumed): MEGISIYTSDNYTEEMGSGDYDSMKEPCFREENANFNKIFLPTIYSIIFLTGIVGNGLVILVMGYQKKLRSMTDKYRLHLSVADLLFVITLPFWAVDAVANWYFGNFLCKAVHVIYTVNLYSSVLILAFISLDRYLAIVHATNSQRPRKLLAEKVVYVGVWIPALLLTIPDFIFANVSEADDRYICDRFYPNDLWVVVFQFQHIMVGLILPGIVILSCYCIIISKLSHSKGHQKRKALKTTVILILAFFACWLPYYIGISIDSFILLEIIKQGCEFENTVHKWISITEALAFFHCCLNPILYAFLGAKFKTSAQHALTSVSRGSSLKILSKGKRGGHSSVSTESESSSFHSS

β-arrestin2 interaction with CXCR4: no effect
SMILES: Fc1ccc(Nc2nc(NC3CCCCC3)c3ccccc3n2)cc1F [DFPQ, N^4-cyclohexyl-N^2-(3,4-difluorophenyl)quinazoline-2,4-diamine]
